Patent publication US7314616B1, “Additive containing an anti-fungal amount of a salt of formic acid” (priority 2003, dated 2008)

These molecules were tested on fungi spores (assay: inhibitory effect on the growth of fungi spores).
Assay type: cell-based
With `COC1=CC(=O)O[C@@H](/C=C/c2ccccc2)C1` [kawain] the “inhibitory effect on the growth of fungi spores” value (“inhibitory effect on the growth” below) was “exhibit inhibitory effect”. For `COC1=CC(=O)O[C@@H](CCc2ccccc2)C1` [diydrokawain], the “inhibitory effect on the growth” value was “exhibit inhibitory effect”. In the case of `COC1=CC(=O)O[C@@H](CCc2ccc3c(c2)OCO3)C1` [dihydromethysticin], the “inhibitory effect on the growth” value is reported as “exhibit inhibitory effect”.
